From US20050261330A1, “Derivatives of 2,2,4-trisubstituted tetrahydrofuran an antifungal agents” (priority 2002, published 2005)
Values after ≈ are worked out from the molar mass of the structure shown.

Key:
[1] = system: Candida parapsilosis ATCC 22019 (QC); assay: MIC, NCCLS M27A broth dilution; format: cell-based; settings: RPMI 1640, MOPS pH 7
[2] = system: Candida brusei ATCC 6258 (QC); assay: MIC, NCCLS M27A broth dilution; format: cell-based; settings: RPMI 1640, MOPS pH 7
[3] = system: Cryptococcus neoformans I; assay: MIC, NCCLS M27A broth dilution; format: cell-based; settings: RPMI 1640, MOPS pH 7
Candida albicans Y-01-19 = assay: MIC, NCCLS M27A broth dilution; format: cell-based; settings: RPMI 1640, MOPS pH 7
[4] = system: Cryptococcus neoformans M 106; assay: MIC, NCCLS M27A broth dilution; format: cell-based; settings: RPMI 1640, MOPS pH 7
Histoplasma capsulatum = format: cell-based; settings: RPMI 1640, MOPS pH 7
[5] = system: Candida albicans ATCC 36082; assay: MIC, NCCLS M27A broth dilution; format: cell-based; settings: RPMI 1640, MOPS pH 7
[6] = system: Aspergillus fumigatus 1008; assay: MIC, NCCLS M38P broth dilution; format: cell-based; settings: RPMI 1640, MOPS pH 7
[7] = system: Paecilomyces variotti ATCC 22319 (QC); assay: MIC, NCCLS broth dilution; format: cell-based; settings: RPMI 1640, MOPS pH 7
Candida krusel 766.1 = assay: MIC, NCCLS M27A broth dilution; format: cell-based; settings: RPMI 1640, MOPS pH 7
[8] = system: Candida tropicalis ATCC 750; assay: MIC, NCCLS M27A broth dilution; format: cell-based; settings: RPMI 1640, MOPS pH 7
[9] = system: Aspergillus fumigatus Si-I; assay: MIC, NCCLS M38P broth dilution; format: cell-based; settings: RPMI 1640, MOPS pH 7
Candida glabrata 90030 = assay: MIC, NCCLS M27A broth dilution; format: cell-based; settings: RPMI 1640, MOPS pH 7
ergosterol P450DM [10] = biological target: T1, ergosterol P450DM (Candida albicans, UniProt P10613); settings: C. albicans lysates; relative to fluconazole; cited from earlier work
T1 construct: host or cells: C. albicans lysates

ergosterol P450DM [11] = settings: A. fumigatus lysates; relative to fluconazole; cited from earlier work
Candida albicans 1162 = assay: MIC, NCCLS M27A broth dilution; format: cell-based; settings: RPMI 1640, MOPS pH 7
Candida albicans 1122 = assay: MIC, NCCLS M27A broth dilution; format: cell-based; settings: RPMI 1640, MOPS pH 7

T1 sequence (P10613 whole entry): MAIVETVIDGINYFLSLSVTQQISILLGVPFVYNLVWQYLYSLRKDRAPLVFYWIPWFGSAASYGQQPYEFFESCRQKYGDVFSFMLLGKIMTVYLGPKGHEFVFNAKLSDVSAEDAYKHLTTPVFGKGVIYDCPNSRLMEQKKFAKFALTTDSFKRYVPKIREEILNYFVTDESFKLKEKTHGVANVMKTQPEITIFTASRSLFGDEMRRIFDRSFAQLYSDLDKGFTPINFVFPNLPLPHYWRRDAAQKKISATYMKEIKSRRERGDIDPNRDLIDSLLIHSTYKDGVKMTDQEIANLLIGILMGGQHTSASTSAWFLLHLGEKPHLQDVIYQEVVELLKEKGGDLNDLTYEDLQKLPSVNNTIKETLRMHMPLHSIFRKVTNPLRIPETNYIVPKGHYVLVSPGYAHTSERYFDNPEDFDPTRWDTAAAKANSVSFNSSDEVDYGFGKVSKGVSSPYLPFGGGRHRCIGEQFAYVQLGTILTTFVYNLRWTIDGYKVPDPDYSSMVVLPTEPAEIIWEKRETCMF

Molecule | MIC [1] [mg/L] | MIC [2] [mg/L] | MIC [3] [mg/L] | MIC (Candida albicans Y-01-19) [mg/L] | MIC [4] [mg/L] | MIC (Histoplasma capsulatum) [mg/L] | MIC [5] [mg/L] | MIC [6] [mg/L] | MIC [7] [mg/L] | MIC (Candida krusel 766.1) [mg/L] | MIC [8] [mg/L] | MIC [9] | MIC (Candida glabrata 90030) [mg/L] | greater inhibition of ergosterol P450DM compared to fluconazole (ergosterol P450DM [10]) [fold] | greater inhibition of ergosterol P450DM compared to fluconazole (ergosterol P450DM [11]) [fold] | MIC (Candida albicans 1162) [mg/L] | MIC (Candida albicans 1122) [mg/L]
2-[(5R,3S)-5-(2,4-Difluorophenyl)-tetrahydro-5-(1H-1,2,4-triazol-1yl-methyl)-furan-3-yl-methyl]-4-[4-(phenyl)-1,2,4-triazol-1-yl]-2,4-dihydro-3(2H,4H)-1,2,4-triazolone [Compound No. 2] | 8 | 8 | 8 | 16 | 8 | 16 | 0.125 | 16 | 8 | 16 | 0.5 | 16 mg/L | 16 | – | – | – | –
C[C@@H](c1ncncc1F)[C@](O)(Cn1cncn1)c1ccc(F)cc1F [Voriconazole] | – | – | – | – | – | – | – | – | – | – | – | – | – | 1.6 | 160 | – | –
O=c1n(-c2ccc(OCc3ccccc3)cc2)cnn1C[C@H]1CO[C@@](Cn2cncn2)(c2ccc(F)cc2F)C1 [Compound No. 6, 2-[(5R,3S)-5-(2,4-Difluorophenyl)-tetrahydro-5-(1H-1,2,4-triazol-1yl-methyl)-furan-3-yl-methyl]-4-[4-(benzyloxy)-phenyl]-2,4-dihydro-3(2H,4H)-1,2,4-triazolone] | 0.25 (≈ 0.459 µM) | 4 (≈ 7.35 µM) | 2 (≈ 3.67 µM) | 1 (≈ 1.84 µM) | 2 (≈ 3.67 µM) | 0.5 (≈ 0.918 µM) | 0.03 (≈ 0.0551 µM) | 16 (≈ 29.4 µM) | 16 (≈ 29.4 µM) | 8 (≈ 14.7 µM) | 0.06 (≈ 0.11 µM) | 16 mg/L (≈ 29.4 µM) | 2 (≈ 3.67 µM) | – | – | – | –
O=c1n(-c2ccc(Cn3cncn3)cc2)cnn1C[C@@H]1CO[C@@](Cn2cncn2)(c2ccc(F)cc2F)C1 [Compound No. 4] | 8 (≈ 15.4 µM) | 16 (≈ 30.8 µM) | 8 (≈ 15.4 µM) | 16 (≈ 30.8 µM) | 8 (≈ 15.4 µM) | 16 (≈ 30.8 µM) | 2 (≈ 3.85 µM) | 16 (≈ 30.8 µM) | 16 (≈ 30.8 µM) | 16 (≈ 30.8 µM) | 16 (≈ 30.8 µM) | 16 mg/L (≈ 30.8 µM) | 16 (≈ 30.8 µM) | – | – | – | –
O=c1n(-c2ccc(N3CCN(c4ccc(OCc5ccccc5)cc4)CC3)cc2)cnn1C[C@H]1CO[C@@](Cn2cncn2)(c2ccc(F)cc2F)C1 [Compound No. 7, 2-[(5R,3S)-5-(2,4-Difluorophenyl)-tetrahydro-5-(1H-1,2,4-triazol-1yl-methyl)-furan-3-yl-methyl]-4-{4-[4-[4-(benzyloxy)-phenyl]-1-piperazinyl]-phenyl}-2,4-dihydro-3(2H,4H)-1,2,4-triazolone] | 0.125 (≈ 0.177 µM) | 8 (≈ 11.4 µM) | 0.06 (≈ 0.0851 µM) | 16 (≈ 22.7 µM) | 0.125 (≈ 0.177 µM) | 16 (≈ 22.7 µM) | < 0.03 | 16 (≈ 22.7 µM) | 1 (≈ 1.42 µM) | 16 (≈ 22.7 µM) | 0.125 (≈ 0.177 µM) | 16 mg/L (≈ 22.7 µM) | 16 (≈ 22.7 µM) | – | – | – | –
O=c1n(-c2ccc(-n3cnnn3)cc2)cnn1C[C@@H]1CO[C@@](Cn2cncn2)(c2ccc(F)cc2F)C1 [Compound No. 9, 2-[(5R,3R)-5-(2,4-Difluorophenyl)-tetrahydro-5-(1H-1,2,4-triazol-1yl-methyl)-furan-3-yl-methyl]-4-[4-(1,2,3,4-tetrazol-1-yl)-phenyl]-2,4-dihydro-3(2H,4H)-1,2,4-triazolone] | 16 (≈ 31.6 µM) | 64 (≈ 126 µM) | 32 (≈ 63.2 µM) | 64 (≈ 126 µM) | 8 (≈ 15.8 µM) | 64 (≈ 126 µM) | – | > 128 | 32 (≈ 63.2 µM) | 64 (≈ 126 µM) | 8 (≈ 15.8 µM) | ≧128 g/ml | 64 (≈ 126 µM) | – | – | 64 (≈ 126 µM) | 4 (≈ 7.9 µM)
O=c1n(-c2ccc(O)cc2)cnn1C[C@H]1CO[C@@](Cn2cncn2)(c2ccc(F)cc2F)C1 [Compound No. 3] | 16 (≈ 35.2 µM) | 16 (≈ 35.2 µM) | 8 (≈ 17.6 µM) | 8 (≈ 17.6 µM) | 8 (≈ 17.6 µM) | 16 (≈ 35.2 µM) | 16 (≈ 35.2 µM) | > 16 | > 16 | 16 (≈ 35.2 µM) | 16 (≈ 35.2 µM) | > 16 mg/L | 16 (≈ 35.2 µM) | – | – | – | –
2-[(5R,3S)-5-(2,4-Difluorophenyl)-tetrahydro-5-(1H-1,2,4-triazol-1yl-methyl)-furan-3-yl-methyl]-4-{4-[4-(phenyl)-1-piperazinyl]-chlorophenyl}-2,4-dihydro-3(2H,4H-1,2,4-triazolone [Compound No. 5] | 0.03 | 0.25 | < 0.03 | 0.125 | 0.125 | 0.25 | 0.03 | 2 | 1 | 1 | 0.03 | 1 mg/L | 1 | – | – | – | –
